Values joined by “and” are separate entries in the source; they are usually repeats but may differ in a detail not shown here. Equal entries are not always repeated. Marks after values point to notes of the source that are not given here.
Tests used:
[1] = tested on: Pulmonary fibrosis; test: Clinical human open trial, pulmonary fibrosis; format: in vivo
Method: (§1) Clinical human open trials have been undertaken as follows: • 1. Pulmonary fibrosis diagnosed as caused by asbestos was treated with pirfenidone and closely and objectively followed in two subjects. […] Pulmonary fibrosis diagnosed as idiopathic in nature was treated with pirfenidone and closely and objectively followed in one subject for over two years. […] Two subjects suffered from frequency, severe nocturia, incontinence, constant urgency, and in the third these symptoms were less severe. Clinically, all had enlarged prostates that explained the symptoms. The results were dramatic in the eldest subject within two weeks of therapy. Nocturia of 6-7 trips (every 60-90 minutes) per night was reduced to 1 or 2 nightly (4-5 hours apart). In the other two patients, nocturia 3-4 times (every 2-3 hours) was reduced to once nightly 4-5 hours after retiring. […] Inhibition of excessive scar formation by direct application of pirfenidone ointment to skin lesions in 10 cases.

[2] = tested on: PULMONARY INTERSTITIAL HYPERPLASIA (FIBROSIS); test: Pulmonary interstitial hyperplasia (fibrosis) in dogs, oral capsules, microscopic scoring; format: in vivo, Beagle dogs; conditions: for Hyperplasia Scores 0 (number of dogs): 0 = normal tissue; for Hyperplasia Scores 1 (number of dogs): 1 = minimal; for Hyperplasia Scores 2 (number of dogs): 2 = moderate; for Hyperplasia Scores 3 (number of dogs): 3 = severe; for Incidence of Normal Lung: control 0/9
Method: The mean score for Group I (Control) was 2.11 +/-0.31, and for Group IV, which received pirfenidone, 150 mg/kg per day orally in capsules, was 0.22 +/-0.19.

[3] = tested on: fibrosis (interstitial hyperplasia); test: Histopathological examination of rat lungs for fibrosis after three months of drug in the diet; format: in vivo; conditions: rats; for Lung Connective Tissue Score, Mean: 300 mg/kg (p.o.) in the diet for three months, score 0, 1, 2, 3 = degree of fibrosis, control mean 1.63, 300 mg/kg
Method: The results of a histopathological examination of the lungs of rats for fibrosis (interstitial hyperplasia) after receiving 300mg/kg body weight of pirfenidone in the diet for three months are summarized in Table 2. The individual microscopic readings of the lung are also shown in Table 2, where a score schedule of 0, 1, 2, and 3 reflects the degree of fibrosis.
The data in Table 2 reveal a statistically significant reduction in the amount of fibrosis in rats receiving pirfenidone as compared to placebo control rats (Group 1). The mean score for the controls (Group 1) was 1.63 +/-0.23, and for Group IV (pirfenidone, 300mg/kg body weight daily was 0.95 +/-0.23.
Student's T value was 2.43, with P less than 0.02 (highly significant statistically).

[4] = tested on: Fibrosis of the ventricular myocardium; test: Clinical human open trial, fibrosis of the ventricular myocardium; format: in vivo
Method: as §1

[5] = tested on: Benign prostate hypertrophy; test: Clinical human open trial, benign prostate hypertrophy; format: in vivo
Method: as §1

[6] = Acute toxicity (LD), cat; conditions: in vivo
Description: The acute toxicity of the ingredient in the medical composition of the present invention which exerts the anti-fibrotic activity is as shown in the table below: […]

[7] = tested on: CYCLOPHOSPHAMIDE-INDUCED IN[…]; test: Cyclophosphamide-induced interstitial fibrosis in mice; format: in vivo
Description: In mice, pulmonary fibrosis induced with cyclophosphamide […] and is know to produce pulmonary fibrosis in patients as a side effect.

[8] = tested on: ASBESTOS-INDUCED PULMONARY IN[…]; test: Asbestos-induced pulmonary interstitial fibrosis in hamsters; format: in vivo
Description: In hamsters, pulmonary fibrosis induced with crysotile asbestos was removed following oral pirfenidone (Table 4).
The novel role of pirfenidone in the therapeutic repair of fibrotic lung tissue featuring removal of fibrotic lesions, and concomitant regeneration of normal lung tissue has been observed in experimental asbestosis by histopathological examination of lung tissue specimens under the light microscope, and electron microscopy (Table 4).
This was subsequently confirmed by ashing of lung specimens in a laboratory oven, and then determining the asbestos content.

[9] = 300 mg/kg (p.o.), three months, 19 animals
[10] = GROUP II: cyclophosphamide 200 mg/kg i.p. plus 500 mg/kg/day p.o.
[11] = group average, asbestos + 500 mg/kg/day in the diet two months, asbestos only 2.75+/-0.25
[12] = individual hamsters, asbestos + 500 mg/kg/day in the diet two months, 0 = normal tissue, 1 = minimal, 2 = moderate, 3 = severe, 500 mg/kg/day

## Cc1ccc(=O)n(-c2ccccc2)c1 [pirfenidone, 5-methyl-1-phenyl-2-(1H) pyridone]
[1]; pulmonary fibrosis diagnosed as caused by asbestos, two subjects
  Clinical impressions: dramatic and highly favorable
[1]; pulmonary fibrosis diagnosed as idiopathic, one subject followed for over two years
  Clinical impressions: highly favorable
[2]; 25 mg/kg/day oral
  Hyperplasia Scores 0 (number of dogs): 1
  Hyperplasia Scores 1 (number of dogs): 1
  Hyperplasia Scores 2 (number of dogs): 4
  Hyperplasia Scores 3 (number of dogs): 0
  Incidence of Normal Lung: 1/6
[2]; 25 mg/kg/day oral, hyperplasia score 0-3, control 2.11+/-0.31
  Average Scores: 1.50+/-0.34
[2]; 75 mg/kg/day oral
  Hyperplasia Scores 0 (number of dogs): 2
  Hyperplasia Scores 1 (number of dogs): 2
  Hyperplasia Scores 2 (number of dogs): 3
  Hyperplasia Scores 3 (number of dogs): 1
  Incidence of Normal Lung: 2/8
[2]; 75 mg/kg/day oral, hyperplasia score 0-3, control 2.11+/-0.31
  Average Scores: 1.38+/-0.38
[2]; 150 mg/kg/day oral
  Hyperplasia Scores 0 (number of dogs): 7
  Hyperplasia Scores 1 (number of dogs): 2
  Hyperplasia Scores 2 (number of dogs): 0
  Hyperplasia Scores 3 (number of dogs): 0
  Incidence of Normal Lung: 7/9
[2]; 150 mg/kg/day orally in capsules, hyperplasia score 0-3, control 2.11+/-0.31, P<0.001, 150 mg/kg/day
  Average Scores: 0.22 +/-0.19
[2]; 150 mg/kg/day orally in capsules, hyperplasia score 0-3, control 2.11+/-0.31, P<0.001, listed as Pirfenidone, 150 mg/kg/day
  Average Scores: 0.22+/-0.15**
[3]
  Lung Connective Tissue Score, Mean: 0.95 +/-0.23
[3]; listed as PIRFENIDONE
  Lung Connective Tissue Score, Mean: 0.95
[3]; [9]
  Lung Connective Tissue Score 0, Total (animals): 5
  Lung Connective Tissue Score 1, Total (animals): 11
  Lung Connective Tissue Score 2, Total (animals): 2
  Lung Connective Tissue Score 3, Total (animals): 1
[4]; one subject (diagnosed as terminal), after repeated coronary infarcts
  fibrosis of the ventricular myocardium (electrocardiogram maps and nuclear resonance determinations): objective evidence of the reduction of the fibrosis
[4]; one subject diagnosed as terminal, drug terminated after 18 months
  survival of the subject: additional three years
[5]; all cases, in 3-4 weeks
  digital examination of the prostate: detectable reduction in the size of the prostate
[5]; other two patients, before 3-4 times (every 2-3 hours)
  Nocturia after therapy: once
[5]; three elderly subjects (66-100 years)
  clinical results: very good to excellent
[6]; iv
  LD50: 40 mg/kg
[6]; po
  LD50: 500 mg/kg
[7]; [10]
  Lung Dry Wt.: 52.4+/-0.9 Mg.
  Lung FIBROSIS Scores (N/N), incidence of scores 3.0 or less: 3/5
[7]; GROUP II: cyclophosphamide 200 mg/kg i.p. plus 500 mg/kg/day p.o., scoring 0 through 6
  Lung FIBROSIS Scores: 2.99+/-0.75
[7]; mice, oral administration
  pulmonary fibrosis induced with cyclophosphamide: removed
[8]; after drug had been discontinued for two months
  recurrence of asbestos-induced fibrosis: did not recur
[8]; electron microscope, confirmed by ashing of lung specimens and asbestos content
  lung cell-imbedded asbestos fibers: had been removed
[8]; group average, asbestos + 500 mg/kg/day in the diet two months, asbestos only 2.53+/-0.23
  Lung Density, Average: 1.17+/-0.10
[8]; [11]
  Pulmonary Fibrosis Score Electron Microscope, Average: 0.25+/-0.25
  Pulmonary Fibrosis Score Light Microscope, Average: 1.00+/-0.41
[8]; hamsters, oral
  pulmonary fibrosis induced with crysotile asbestos: removed
[8]; [12]
  Pulmonary Fibrosis Score Electron Microscope: 0 (3×) and 1
  Pulmonary Fibrosis Score Light Microscope: 0 and 2 and 1 (2×)
[8]; individual hamsters, asbestos by inhalation 5 days, 500 mg/kg/day orally in the diet for two months, beginning two months after exposure, 500 mg/kg/day
  Lung Density: 0.98 and 1.04 and 1.26 and 1.41

Source: patent EP0702551B1, “COMPOSITIONS AND METHODS FOR REPARATION AND PREVENTION OF FIBROTIC LESIONS” (MARGOLIN, Solomon B., priority 1993, dated 1994)
